By EC50 is commonly meant the concentration at which the effect is half-maximal. Lower therefore signals higher potency in that assay.

The structures appear in SMILES notation.

These results are taken from patent US10195189B2, “2-phenethenyltetrahydro isoquinolines useful as anti-HIV compounds” (priority 2014, dated 2019).

The test concerns HIV-1 NL4-3 viral clone expressing Renilla luciferase. Put plainly: microbe, parasite or virus in culture. The test is classed as cell-based. The note with it: Human immunodeficiency virus 1, NL43, MT2, 96 h. In a few lines:
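MT-2 cells (2×10^4/well) were infected at MOI 0.027 with Renilla-luciferase HIV-1 NL4-3 alongside 3-fold compound dilutions for 96 h. Spread was read by EnduRen luminescence and supernatant infectivity on TZM-bl (48 h, MUG fluorescence). Mock-infected cytotoxicity used AlamarBlue. % inhibition versus solvent was fitted by 4-parameter logistic (0–100% constrained) for EC50/CC50.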
Consider `COc1cc(C)c(/C=C/C2c3cc(OC)c(OCc4ccccc4)cc3CCN2C(=O)c2ccncc2)cc1OCc1ccccc1` (stereo not drawn) [Example U, [6-benzyloxy-1-[(E)-2-(5-benzyloxy-4-methoxy-2-methyl-phenyl)vinyl]-7-methoxy-3,4-dihydro-1H-isoquinolin-2-yl]-(4-pyridyl)methanone], for which the EC50 came out at 870 nM.

Consider `COc1cc(/C=C/C2NCCc3cc(OC)c(OCc4ccccc4)cc32)ccc1OCc1ccccc1` (stereo not drawn) [Example S, 7-benzyloxy-1-[(E)-2-(4-benzyloxy-3-methoxy-phenyl)vinyl]-6-methoxy-1,2,3,4-tetrahydroisoquinoline], for which the half-maximal effective concentration (EC50) stood at 992 nM.

`COc1ccc(/C=C/C2NCCc3cc(OCc4ccccc4)c(OC)cc32)cc1C` (stereo not drawn) [EI, 6-Benzyloxy-7-methoxy-1-[(E)-2-(4-methoxy-3-methyl-phenyl)vinyl]-1,2,3,4-tetrahydroisoquinoline] came in with an EC50 of 340 nM.

Consider `COc1cc2c(cc1OCc1ccccc1)CCNC2/C=C/c1ccccc1N` (stereo not drawn) [CX, 2-[(E)-2-(6-benzyloxy-7-methoxy-1,2,3,4-tetrahydroisoquinolin-1-yl)vinyl]aniline], for which the 50% effective concentration (EC50) was determined as 1400 nM.

On to `COc1cc(C)c(/C=C/C2NCCc3cc(OCc4ccccc4)c(OC)cc32)cc1OCCCC(=O)O` (stereo not drawn) [BO, 4-[5-[(E)-2-(B-benzyloxy-7-methoxy-1,2,3,4-tetrahydroisoquinolin-1-yl)vinyl]-2-methoxy-4-methyl-phenoxy]butanoic acid], for which the 50% effective concentration (EC50) is 234 nM.

In turn, `COc1cc2c(cc1OCc1ccccc1)CCNC2/C=C/c1ccc(OC(F)(F)F)cc1C` (stereo not drawn) [Example AJ, (E)-6-(benzyloxy)-7-methoxy-1-(2-methyl-4-(trifluoromethoxy)styryl)-1,2,3,4-tetrahydroisoquinoline] registered an EC50 of 2740 nM.

`COc1cc(C)c(/C=C/C2c3cc(OC)c(OCc4ccccc4)cc3CCN2C)cc1OCc1ccccc1` (stereo not drawn) [Example E, 6-Benzyloxy-1-[(E)-2-(5-benzyloxy-4-methoxy-2-methyl-phenyl)vinyl]-7-methoxy-2-methyl-3,4-dihydro-1H-isoquinoline] gave an EC50 of 8470 nM.

Regarding `COc1ccc(/C=C/C2NCCc3cc(OCc4ccccc4)c(OC)cc32)c(F)c1` (stereo not drawn) [BR, 6-Benzyloxy-1-[(E)-2-(2-fluoro-4-methoxy-phenyl)vinyl]-7-methoxy-1,2,3,4-tetrahydroisoquinoline], a half-maximal effect (EC50) was put at 1140 nM.

Molecule `COc1cc(/C=C/C2NCCc3cc(OCc4ccccc4)c(OC)cc32)ccn1` (stereo not drawn) [AU, 6-benzyloxy-7-methoxy-1-[(E)-2-(2-methoxy-4-pyridyl)vinyl]-1,2,3,4-tetrahydroisoquinoline] showed a concentration for a half-maximal effect (EC50) of 1650 nM.

Consider `COc1cc2c(cc1OCc1ccccc1)CCNC2/C=C/c1ccc(-c2ncco2)cc1` (stereo not drawn) [ED, 2-[4-[(E)-2-(6-Benzyloxy-7-methoxy-1,2,3,4-tetrahydroisoquinolin-1-yl)vinyl]phenyl]oxazole], for which a half-maximal effect (EC50) was put at 580 nM.

Regarding `COc1ccc(/C=C/C2NCCc3cc(OCc4ccccc4)c(OC)cc32)c(OC)c1` (stereo not drawn) [AV, 6-Benzyloxy-1-[(E)-2-(2,4-dimethoxyphenyl)vinyl]-7-methoxy-1,2,3,4-tetrahydroisoquinoline], the EC50 was 140 nM.

Take `COc1cc(Cl)c(/C=C/C2NCCc3cc(OCc4ccccc4)c(OC)cc32)cc1OCc1ccccc1` (stereo not drawn) [Example AC, 6-benzyloxy-1-[(E)-2-(5-benzyloxy-2-chloro-4-methoxy-phenyl)vinyl]-7-methoxy-1,2,3,4-tetrahydroisoquinoline]: the EC50 stood at 87.2 nM.

In the case of `COC(=O)N1CCc2cc(OCc3ccccc3)c(OC)cc2C1/C=C/c1ccc(OC)c(OCc2ccccc2)c1` (stereo not drawn) [Example L, Methyl 6-benzyloxy-1-[(E)-2-(3-benzyloxy-4-methoxy-phenyl)vinyl]-7-methoxy-3,4-dihydro-1H-isoquinoline-2-carboxylate], the concentration giving a half-maximal response (EC50) stood at 2810 nM.

The molecule `COc1cc(C)c(/C=C/C2NCCc3cc(OCc4ccccc4)c(OC)cc32)c(C)c1` (stereo not drawn) [BA, 6-Benzyloxy-7-methoxy-1-[(E)-2-(4-methoxy-2,6-dimethyl-phenyl)vinyl]-1,2,3,4-tetrahydroisoquinoline] gave a half-maximal effective concentration (EC50) of 497 nM.

Take `COc1cc2c(cc1OCc1ccccc1)CCNC2/C=C/c1ccccc1N(C)C` (stereo not drawn) [DC, (E)-2-(2-(6-(benzyloxy)-methoxy-1,2,3,4-tetrahydroisoquinolin-1-yl)vinyl)-N,N-dimethylamine]: the response was half-maximal at 830 nM (EC50).

For `COc1ccc(/C=C/C2NCCc3cc(OCc4ccccc4)c(OC)cc32)cc1` (stereo not drawn) [BJ, 6-Benzyloxy-7-methoxy-1-[(E)-2-(4-methoxyphenyl)vinyl]-1,2,3,4-tetrahydroisoquinoline], the response was half-maximal at 477 nM (EC50).

In turn, `COc1cc2c(cc1OCc1ccccc1)CCNC2/C=C/c1cc(OC)c(OC)c(OC)c1` (stereo not drawn) [Example AM, 6-Benzyloxy-7-methoxy-1-[(E)-2-(3,4,5-trimethoxyphenyl)vinyl]-1,2,3,4-tetrahydroisoquinoline] displayed an EC50 of 220 nM.

For `COc1cc(C)c(/C=C/C2NCCc3cc(OCc4ccccc4)c(OC)cc32)cc1OC` (stereo not drawn) [Example AH, 6-benzyloxy-1-[(E)-2-(4,5-dimethoxy-2-methyl-phenyl)vinyl]-7-methoxy-1,2,3,4-tetrahydroisoquinoline], the half-maximal effective concentration (EC50) came to 13.3 nM.

As to `COc1cc2c(cc1OCc1ccccc1)CCNC2/C=C/c1ccc(OC)c(C)c1C` (stereo not drawn) [EL, 6-Benzyloxy-7-methoxy-1-[(E)-2-(4-methoxy-2,3-dimethyl-phenyl)vinyl]-1,2,3,4-tetrahydroisoquinoline], a half-maximal response (EC50) required 150 nM.

The molecule `COc1cc2c(cc1OCc1ccccc1)CCNC2/C=C/c1ccncc1` (stereo not drawn) [AW, 6-Benzyloxy-7-methoxy-1-[(E)-2-(4-pyridyl)vinyl]-1,2,3,4-tetrahydroisoquinoline] showed an EC50 of 3280 nM.

With `COc1cc(C)c(CCC2NCCc3cc(OCc4ccccc4)c(OC)cc32)cc1OCc1ccccc1` (stereo not drawn) [Example Q, 6-benzyloxy-1-[2-(5-benzyloxy-4-methoxy-2-methyl-phenyl)ethyl]-7-methoxy-1,2,3,4-tetrahydroisoquinoline], it took 1360 nM to reach a half-maximal effect (EC50).

The molecule `COc1cc(F)c(/C=C/C2NCCc3cc(OCc4ccccc4)c(OC)cc32)cc1OC` (stereo not drawn) [BP, 6-Benzyloxy-1-[(E)-2-(2-fluoro-4,5-dimethoxy-phenyl)vinyl]-7-methoxy-1,2,3,4-tetrahydroisoquinoline] yielded an EC50 of 2030 nM.

`COc1ccccc1/C=C/C1NCCc2cc(OCc3ccccc3)c(OC)cc21` (stereo not drawn) [DG, (E)-6-(benzyloxy)-7-methoxy-1-(2-methoxystyryl)-1,2,3,4-tetrahydroisoquinoline]: the midpoint of the response, the EC50, lay at 2200 nM.

`COc1cc2c(cc1OCc1ccccc1)CCNC2/C=C/c1ccc(OC)c(C(F)(F)F)c1` (stereo not drawn) [CY, (E)-6-(Benzyloxy)-7-methoxy-1-(4-methoxy-3-(trifluoromethyl)styryl)-1,2,3,4-tetrahydroisoquinoline] displayed an EC50 of 697 nM.

`COc1ccc(/C=C/C2NCCc3cc(OCc4ccccc4)c(OC)cc32)cc1COCC(F)(F)F` (stereo not drawn) [EO, 6-Benzyloxy-7-methoxy-1-[(E)-2-[4-methoxy-3-(2,2,2-trifluoroethoxymethyl)phenyl]vinyl]-1,2,3,4-tetrahydroisoquinoline] gave a half-maximal effective concentration (EC50) of 504 nM.

Regarding `COc1cc2c(cc1OCc1ccccc1)CCNC2/C=C/c1ccnn1C` (stereo not drawn) [Example AK, 6-benzyloxy-7-methoxy-1-[(E)-2-(2-methylpyrazol-3-yl)vinyl]-1,2,3,4-tetrahydroisoquinoline], the EC50 amounted to 8870 nM.

Molecule `COc1cc2c(cc1OCc1ccccc1)CCNC2/C=C/c1cc2ccccc2s1` (stereo not drawn) [DU, 1-[(E)-2-(1-Benzothiophen-2-yl)ethenyl]-6-(benzyloxy)-7-methoxy-1,2,3,4-tetrahydroisoquinoline] had an EC50 of 10100 nM.

`COc1cc2c(cc1OCc1ccccc1)CCNC2/C=C/c1ccc(C(=O)O)cc1` (stereo not drawn) [EQ, 4-[(E)-2-(6-benzyloxy-7-methoxy-1,2,3,4-tetrahydroisoquinolin-1-yl)vinyl]benzoic acid] gave an EC50 of 7040 nM.

`COc1cc(C)c(/C=C/C2NCCc3cc(OCc4ccccc4)c(OC)cc32)cc1OCc1ccccc1` (stereo not drawn) [AF, 6-benzyloxy-1-[(E)-2-(5-benzyloxy-4-methoxy-2-methyl-phenyl)vinyl]-7-methoxy-1,2,3,4-tetrahydroisoquinoline] had an EC50 of 83 nM.

`COc1cc2c(cc1OCc1ccccc1)CCNC2/C=C/c1c(C)ccc2c1OCCC2` (stereo not drawn) [CC, 6-Benzyloxy-7-methoxy-1-[(E)-2-(7-methylchroman-8-yl)vinyl]-1,2,3,4-tetrahydroisoquinoline]: the EC50 turned out to be 1180 nM.

`COc1ccc(/C=C/C2NCCc3cc(OCc4ccccc4)c(OC)cc32)c(OC)n1` (stereo not drawn) [CA, 6-Benzyloxy-1-[(E)-2-(2,6-dimethoxy-3-pyridyl)vinyl]-7-methoxy-1,2,3,4-tetrahydroisoquinoline] returned an EC50 of 640 nM.

Molecule `COc1cc2c(cc1OCc1ccccc1)CCNC2/C=C/c1ccc(N2CCN(C)CC2)cc1` (stereo not drawn) [DW, 6-(Benzyloxy)-7-methoxy-1-[(E)-2-[4-(4-methylpiperazin-1-yl)phenyl]ethenyl]-1,2,3,4-tetrahydroisoquinoline] returned a concentration giving a half-maximal response (EC50) of 1240 nM.

The molecule `COc1cc(/C=C/C2NCCc3cc(OCc4ccccc4)c(OC)cc32)cc(OC)c1` (stereo not drawn) [AT, 6-Benzyloxy-1-[(E)-2-(3,5-dimethoxyphenyl)vinyl]-7-methoxy-1,2,3,4-tetrahydroisoquinoline] had an EC50 of 770 nM.

Turning to `COc1cc2c(cc1OCc1ccccc1)CCNC2/C=C/c1cc2c(cc1C)OCCC2` (stereo not drawn) [CE, 6-Benzyloxy-7-methoxy-1-[(E)-2-(7-methylchroman-6-yl)vinyl]-1,2,3,4-tetrahydroisoquinoline], the concentration giving a half-maximal response (EC50) worked out at 125 nM.

The molecule `COc1ccc(/C=C/C2NCCc3cc(OCc4ccccc4)c(OC)cc32)cc1Cn1ccnc1C` (stereo not drawn) [EN, 6-Benzyloxy-7-methoxy-1-[(E)-2-[4-methoxy-3-[(2-methylimidazol-1-yl)methyl]phenyl]vinyl]-1,2,3,4-tetrahydroisoquinolin] had an EC50 of 189 nM.

`CCCCN1CCc2cc(OC)c(OCc3ccccc3)cc2C1/C=C/c1ccc(OCc2ccccc2)c(OC)c1` (stereo not drawn) [Example D, 7-Benzyloxy-1-[(E)-2-(4-benzyloxy-3-methoxy-phenyl)vinyl]-2-butyl-6-methoxy-3,4-dihydro-1H-isoquinoline] returned an EC50 of 8920 nM.
